pIC50: −log10 of the molar value. Where “and” joins values, the source holds several entries; their conditions need not be identical. Equal entries are not always repeated. Where two headings read alike, the source gives them in different places.
System: Cryptococcus neoformans ATCC 90113
Experiment: Antimicrobial microdilution assay against Cryptococcus neoformans (modified CLSI/NCCLS, optical density)
Type: cell-based
Conditions: for X more potent than Amphotericin B: C. neoformans, ratio of molar IC50 to Amphotericin B
Experimental: Summary: Various macrocyclic derivatives constructed in accordance with the presently disclosed and/or claimed inventive concept(s) were screened in vitro against Cryptococcus neoformans ATCC 90113 using a microdilution assay. The minimum fungicidal concentration (MFC), the lowest test concentration that kills the organism, was determined in broth media.
Antimicrobial assay: Cryptococcus neoformans ATCC 90113 were obtained from the American Type Culture Collection (Manassas, VA.). The susceptibility testing was performed using a modified version of the CLSI (formerly NCCLS) methods (see below), and optical density was used to monitor growth. Samples were serially diluted in 20% DMSO/saline and transferred in duplicate to 96-well flat bottom microplates. Microbial inocula were prepared by correcting the OD630 of cell/spore suspensions in incubation broth RPMI at pH 6.0 to afford final desired target inocula. Amphotericin B (“AMB;” ICN Biomedicals, OH) was used as drug control. The organism concentration was read at 630 nm using the Biotek Powerwave XS plate reader (Bio-Tek instruments, VT) prior to and after incubation. Minimum fungicidal concentrations were determined by removing 5 μL from each clear well, transferring to agar, and incubating until growth was seen. The MFC/MBC is defined as the lowest test concentration that kids the organism (allows no growth on agar).
References for NCCLS methods referenced above: 1 NCCLS. Reference method for broth dilution antifungal susceptibility testing of yeasts, Vol. 22. Approved standard, 2nd ed. Wayne: National Committee for Clinical Laboratory Standards; 2002: 1-51. 2 NCCLS. Reference method for broth dilution antifungal susceptibility testing of conidium forming filamentous fungi, Vol. 18. Proposed standard M38-P. Wayne: National Committee for Clinical Laboratory Standards; 1998: 1-39. 3 NCCLS. Methods for dilution antimicrobial susceptibility tests for bacteria that grow aerobically, Vol. 20. NCCLS Document M7-A5. Wayne: National Committee for Clinical Laboratory Standards; 2000: 1-58.
The term “IC50” as used herein will be understood to refer to a test concentration in mol/L that affords 50% inhibition of the microbe relative to negative and positive controls. […] The abbreviation “MFC” as used herein will be understood to refer to a minimum fungicidal concentration, or the lowest test concentration in mol/L that kills the organism. All IC50s are calculated using the XLfit® fit curve fitting software (ID Business Solutions Ltd, Guildford, Surrey, UK).
General Experimental Procedures. All organisms were obtained from the American Type Culture Collection (Manassas, VA) and include the fungi Candida albicans ATCC 90028, C. glabrata ATCC 90030, C. krusei ATCC 6258, and Cryptococcus neoformans ATCC 90113, and the bacteria Staphylococcus aureus ATCC 29213 and methicillin-resistant S. aureus ATCC 33591 (MRS). All organisms were tested using modified versions of the CLSI (formerly NCCLS) methods. For all organisms, optical density was used to monitor growth (NCCLS, Reference Method for Broth Dilution Antifungal Susceptibility Testing of Yeasts; Approved Standard M27-A2. National Committee on Clinical Laboratory Standards, 2002 22 (15); and NCCLS, Methods for Dilution Antimicrobial Susceptibility Tests for Bacteria that Grow Aerobically; Approved Standard, Seventh Edition M7-A7. National Committee on Clinical Laboratory Standards, 2006. 26(2)).
Samples (dissolved in DMSO) were serially-diluted in 20% DMSO/saline and transferred (10 μL) in duplicate to 96 well flat bottom microplates.

[1] = in vitro, C. neoformans ATCC 90113
[2] = in vitro, C. neoformans ATCC 90113, read-out: C. neoformans IC50 (mol/L)

CC(=O)[O-].CC(=O)[O-].CN1CCCN2CCN(CCCN(Cc3ccc(CN4CCCN5CCN(C)CCCN(CC5)CC4)cc3)CC2)CC1.F[P-](F)(F)(F)(F)F.F[P-](F)(F)(F)(F)F.[Co+2].[Co+2] [KS40, [Co2(p-CB-cyclams)(OAc)2](PF6)2]
X more potent than Amphotericin B: 13 and 13.21
C. neoformans IC50 [1]: 0.020 µg/mL
pIC50 [2]: ≥ 7.74
pIC50 (read-out: IC50 against C. neoformans): > 7.74

CN1CCCN2CCN(C)CCCN(CC1)CC2.F[P-](F)(F)(F)(F)F.[Cl-].[Cl-].[Co+3] [SAH06#2, [Co(Bcyclam)Cl2]PF6]
X more potent than Amphotericin B: 0.01
C. neoformans IC50 [1]: 19.220 µg/mL
pIC50 [2]: 4.44

[Ni2(p-SB-cyclam-cyclen)(OAc)][PF6]3•H2O [CMB017A]
X more potent than Amphotericin B: 0.06
C. neoformans IC50 [1]: 4.940 µg/mL
pIC50 [2]: 5.37

CN1CCN2CCN(CC1)CCN(Cc1ccccn1)CC2.[Cl-].[Cl-].[Mn+2] [KRW37, [Mn(pic1Me1-CB-Cyclen)Cl]Cl]
X more potent than Amphotericin B: 0.03
C. neoformans IC50 [1]: 3.076 µg/mL
pIC50 [2]: 5.14

c1cc(CN2CCNCCCN3CCN(CC3)CC2)cc(CN2CCNCCCN3CCN(CC3)CC2)c1 [OB46, m-SB-Homocyclens]
X more potent than Amphotericin B: 0.03
C. neoformans IC50 [1]: 4.850 µg/mL
pIC50 [2]: 5.04

CC(=O)[O-].CN1CCN2CCN(CC1)CCN(Cc1cc(Cl)nc(Cl)c1)CC2.F[P-](F)(F)(F)(F)F.[Co+2] [OB118, [Co(Me1dcp1-CB-cyclen)(OAc)]PF6]
X more potent than Amphotericin B: 0.03
C. neoformans IC50 [1]: 6.050 µg/mL
pIC50 [2]: 5.02

[Cu2(p-CB-Homocyclens)(OAc)2][PF6]2 [ANC011]
X more potent than Amphotericin B: 0.06
C. neoformans IC50 [1]: 4.190 µg/mL
pIC50 [2]: 5.41

[Fe2(m-cyclam-homocyclen)][FeCl4]2•7H2O [AW048]
X more potent than Amphotericin B: 0.17
C. neoformans IC50 [1]: 1.660 µg/mL
pIC50 [2]: 5.86

C1CNCCN2CCCNCCN(C1)CC2.CC(=O)[O-].F[P-](F)(F)(F)(F)F.[Co+2] [ANC25, [Co(H2Bcyclam)(OAc)]PF6]
X more potent than Amphotericin B: 0.03
C. neoformans IC50 [1]: 4.360 µg/mL
pIC50 [2]: 5.05

CN1CCCN2CCN(C)CCN(CC1)CC2.F[P-](F)(F)(F)(F)F.[Cl-].[Cl-].[Mn+3] [DLM10, [Mn(B13N4)Cl2]PF6]
X more potent than Amphotericin B: 0.01
C. neoformans IC50 [1]: 9.522 µg/mL
pIC50 [2]: 4.73

CC(=O)[O-].CC(=O)[O-].CN1CCN2CCN(CC1)CCN(Cc1nc3ccccc3[nH]1)CC2.[Zn+2] [SJA225, [Zn(CB-BI-cyclen)(OAc)2]]
X more potent than Amphotericin B: 0.01
C. neoformans IC50 [1]: 5.690 µg/mL

CN1CCCN2CCN(CCCN(Cc3ccc(CN4CCCN5CCN(C)CCCN(CC5)CC4)cc3)CC2)CC1 [KS23, p-CB-cyclams]
X more potent than Amphotericin B: 0.02
C. neoformans IC50 [1]: 8.200 µg/mL
pIC50 [2]: 4.85

CC(=O)[O-].CN1CCCN2CCN(CCCN(Cc3ccccc3)CC2)CC1.F[P-](F)(F)(F)(F)F.[Co+2] [TRH16, [Co(Bn1Me1Bcyclam)(OAc)]PF6]
X more potent than Amphotericin B: 0.02
C. neoformans IC50 [1]: 9.190 µg/mL
pIC50 [2]: 4.81

[Cl][Fe-2]([Cl])([Cl])[Cl].[Cl][Fe-2]([Cl])([Cl])[Cl].[Fe+2].[Fe+2].c1cc(CN2CCCN3CCNCCCN(CC3)CC2)ccc1CN1CCCN2CCNCCCN(CC2)CC1 [TJH413B, [Fe2(H2-p-CB-cyclams)][FeCl4]2]
X more potent than Amphotericin B: 0.03
C. neoformans IC50 [1]: 7.380 µg/mL
pIC50 [2]: 5.16

[Fe(Py-SB-Cyclam)Cl]PF6 [ADS18C]
X more potent than Amphotericin B: 0.01
C. neoformans IC50 [1]: 18.540 µg/mL
pIC50 [2]: 4.48

CN1CCN2CCN(CC1)CCN(Cc1nc3ccccc3[nH]1)CC2 [SJA220, CB-BI-cyclen]
X more potent than Amphotericin B: 0.02
C. neoformans IC50 [1]: 5.160 µg/mL
pIC50 [2]: 4.82

CN1CCN2CCN(C)CCN(CC1)CC2.F[P-](F)(F)(F)(F)F.[Cl-].[Cl-].[Co+3] [DT06#2, [Co(Bcyclen)Cl2]PF6]
X more potent than Amphotericin B: 0.04
C. neoformans IC50 [1]: 3.390 µg/mL
pIC50 [2]: 5.17

CC(=O)[O-].CC(=O)[O-].CN1CCN2CCN(CC1)CCN(Cc1ccc(CN3CCN4CCN(C)CCN(CC4)CC3)cc1)CC2.F[P-](F)(F)(F)(F)F.F[P-](F)(F)(F)(F)F.[Cu+2].[Cu+2] [JAV06, [Cu2(p-CB-Cyclens)(OAc)2][PF6]2]
X more potent than Amphotericin B: 0.02
C. neoformans IC50 [1]: 10.900 µg/mL
pIC50 [2]: 4.99

[Zn2(m-CB-Homocyclens)(OAc)0.5][PF6]3.5 [CDG037]
X more potent than Amphotericin B: 0.18
C. neoformans IC50 [1]: 1.620 µg/mL
pIC50 [2]: 5.88

[Zn(H2PBCyclam)(OAc)]PF6•2.5NH4PF6 [SLK41]
X more potent than Amphotericin B: 0.04
C. neoformans IC50 [1]: 5.190 µg/mL
pIC50 [2]: 5.25

[Cu2(m-SB-cyclam-cyclen)(OAc)][PF6]3•2H2O [CMB034]
X more potent than Amphotericin B: 0.35
C. neoformans IC50 [1]: ≤ 0.800 µg/mL
pIC50 [2]: 6.17

[Cu(dcp1-SB-cyclen)(OAc)]PF6 [OB105]
X more potent than Amphotericin B: 0.08
C. neoformans IC50 [1]: 2.190 µg/mL
pIC50 [2]: 5.51

[Cl-].[Cl-].[Zn+2].c1ccc2[nH]c(CN3CCNCCN4CCN(CC4)CC3)nc2c1 [SJA222, [Zn(SB-BI-cyclen)(Cl)2]]
X more potent than Amphotericin B: 0.03
C. neoformans IC50 [1]: 2.610 µg/mL

C1CNCCN2CCCNCCN(C1)CCC2.O.O.O.[Cl-].[Cl-].[Cl-].[Mn+3] [SLK37, Mn(H2PBCyclam)Cl3•3H2O]
X more potent than Amphotericin B: 0.06
C. neoformans IC50 [1]: 1.780 µg/mL
pIC50 [2]: 5.41

c1ccc2[nH]c(CN3CCNCCN4CCN(CC4)CC3)nc2c1 [SJA219, SB-BI-cyclen]
X more potent than Amphotericin B: 0.01
C. neoformans IC50 [1]: 5.780 µg/mL
pIC50 [2]: 4.75

[Ni2(m-SB-cyclam-cyclen)(OAc)][PF6]3 [CMB033]
X more potent than Amphotericin B: 0.16
C. neoformans IC50 [1]: 1.710 µg/mL
pIC50 [2]: 5.82

m-CB-cyclam-cyclen [DGJ036]
X more potent than Amphotericin B: 0.02
C. neoformans IC50 [1]: 5.800 µg/mL
pIC50 [2]: 4.98

C1CN2CCNCCN(CCN1)CC2.CC(=O)[O-].F[P-](F)(F)(F)(F)F.[Co+2] [ANC27A, [Co(H2Bcyclen)(OAc)]PF6]
X more potent than Amphotericin B: 0.02
C. neoformans IC50 [1]: 5.030 µg/mL
pIC50 [2]: 4.96

[Zn(Me1Pic1-CB-cyclen)](PF6)2 [KRW49]
X more potent than Amphotericin B: 0.03
C. neoformans IC50 [1]: 5.230 µg/mL
pIC50 [2]: 5.12

CC(=O)[O-].CC(=O)[O-].F[P-](F)(F)(F)(F)F.F[P-](F)(F)(F)(F)F.O.[Co+2].[Co+2].c1cc(CN2CCNCCCN3CCN(CC3)CC2)cc(CN2CCNCCCN3CCN(CC3)CC2)c1 [OB55, [Co2(m-SB-Homocyclens)(OAc)2][PF6]2•H2O]
X more potent than Amphotericin B: 0.05
C. neoformans IC50 [1]: 5.120 µg/mL
pIC50 [2]: 5.32

CC(=O)[O-].CC(=O)[O-].CC(=O)[O-].F[P-](F)(F)(F)(F)F.F[P-](F)(F)(F)(F)F.F[P-](F)(F)(F)(F)F.[Co+3].[Co+3].c1cc(CN2CCCN3CCNCCCN(CC3)CC2)ccc1CN1CCCN2CCNCCCN(CC2)CC1 [TJH414B, [Co2(H2-p-CB-cyclams)(OAc)3][PF6]3]
X more potent than Amphotericin B: 1.31
C. neoformans IC50 [1]: 0.234 µg/mL
pIC50 [2]: 6.74

CC(=O)[O-].CC(=O)[O-].F[P-](F)(F)(F)(F)F.F[P-](F)(F)(F)(F)F.O.O.O.O.O.[Cu+2].[Cu+2].c1cc(CN2CCCN3CCNCCCN(CC3)CC2)ccc1CN1CCCN2CCNCCCN(CC2)CC1 [TJH416B, [Cu2(H2-p-CB-cyclams)(OAc)2][PF6]2•5H2O]
X more potent than Amphotericin B: 0.09
C. neoformans IC50 [1]: 3.030 µg/mL
pIC50 [2]: 5.59

Reference: US12139481B2, “Compositions comprising macrocycle derivatives incorporating bridged macrocycles and methods of producing and using same” (Southwestern Oklahoma State University, priority 2015, dated 2024)
